This assay has as its system MDR strain of MTB. Kind of assay: microbe, parasite or virus in culture. The note with it: Mycobacterium tuberculosis, 192 h, read-out: Anti-tubercular activity against Mycobacterium tuberculosis, MDR (minimum inhibitory concentration, MIC). The class given is cell-based.

In brackets after ≈: the same amount, converted by molar mass. Where only a bound is given, the exact number is not on record here.

For `CN1C(=Cc2ccc([N+](=O)[O-])cc2)C(=O)N/C1=N\C(=S)Nc1cccc(Cl)c1` (stereo in doubt) [Compound 4q, 1-(3-Chlorophenyl)-3-[(2E,5Z)-1-methyl-5-(4-nitrobenzylidene)-4-oxoimidazolidin-2-ylidene]thiourea], the MIC came out at 32 µg/mL (≈ 76.9 µM).

For `CN1C(=Cc2ccc(-c3ccccc3[N+](=O)[O-])o2)C(=O)N/C1=N\C(=S)Nc1ccc(F)cc1` (stereo in doubt) [Compound 4v, 1-(4-Fluorophenyl)-3-[(2E,5Z)-1-methyl-5-{[5-(2-nitrophenyl)furan-2-yl]methylidene}-4-oxoimidazolidin-2-ylidene]thiourea], the MIC was > 32 µg/mL.

Take `CN1/C(=C\c2ccc(Br)o2)C(=O)N/C1=N\C(=O)Nc1cccc(F)c1` [Compound 4g, 1-{(2E,5Z)-5-[(5-Bromofuran-2-yl)methylidene]-1-methyl-4-oxoimidazolidin-2-ylidene}-3-(3-fluorophenyl)urea]: the MIC came to 32 µg/mL (≈ 78.6 µM).

These data come from patent publication US11981643B1, “Oxoimidazolidine derivatives as anti-tubercular agents” (priority 2023, dated 2024).
